In patent publication US8236818B2, “Substituted imidazopyridine derivatives as melanocortin-4 receptor antagonists” (Santhera Pharmaceuticals (Schweiz) AG, priority 2007, dated 2012) one finds Emax, IC50 and EC50 data, which are given here for 21 compounds.

Test [1] addresses T1, melanocortin-4 receptor (Homo sapiens, UniProt P32245).
T1 construct: expressed in transfected cells; host or cells: HEK293 cells (membrane preparations)
In words: Functional assay (cAMP fluorescence polarization, membrane based, agonistic activity). The test is classed as biochemical. To be noted: for Emax: 2 h, read-out: % activation functional assay. For orientation: Fluorescence polarisation rises when a labelled molecule tumbles more slowly, as on binding a larger partner.

Test [2] has as its target T1, melanocortin-4 receptor. In words: Membrane binding assay (fluorescence polarization, competition with fluorescence labeled NDP-alpha-MSH). To be noted: read-out: hMC-4R binding assay IC50/μM.

T1 sequence (P32245 whole entry): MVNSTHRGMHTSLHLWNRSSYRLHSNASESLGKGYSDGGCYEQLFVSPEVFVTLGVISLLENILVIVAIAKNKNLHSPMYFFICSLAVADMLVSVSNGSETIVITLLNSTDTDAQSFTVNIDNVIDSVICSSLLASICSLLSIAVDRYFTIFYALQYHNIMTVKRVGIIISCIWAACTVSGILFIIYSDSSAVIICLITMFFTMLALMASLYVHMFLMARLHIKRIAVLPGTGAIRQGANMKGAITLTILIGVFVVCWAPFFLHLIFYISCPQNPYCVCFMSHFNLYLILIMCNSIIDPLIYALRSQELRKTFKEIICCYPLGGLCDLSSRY

Consider `CC(C)CCN(CCC(C)C)C(=O)c1ccc2nc(-c3ccc4c(c3)OCCO4)c(CCCN)n2c1` [Example 1], for which, in test [1], the Emax was 0%. Moreover, the IC50 in test [2] is 0.1 to 1 µM.

As to `CC(C)CCN(CCC(C)C)C(=O)c1ccc2nc(-c3ccc4c(c3)OCCO4)c(CCCN3CCCCC3)n2c1` [Example 2], in test [1], the Emax was 0%. Also, in test [2], the IC50 is less than 0.1 µM.

On to `COc1ccc(-c2nc3ccc(C(=O)N(CCC(C)C)CCC(C)C)cn3c2CCCN)cc1` [Example 3], for which the Emax in test [1] stood at 0%. In addition, the IC50 in test [2] lay in the range of 0.1 to 1 µM.

For `CC(C)CCN(CCC(C)C)C(=O)c1ccc2nc(-c3ccc(Cl)cc3)c(CCCN)n2c1` [Example 4], the Emax in test [1] worked out at 0%. For the same compound, the IC50 in test [2] lay within 0.1 to 1 µM.

As for `COc1ccc(-c2nc3ccc(C(=O)N(CCC(C)C)CCC(C)C)cn3c2CCCN(C)C)cc1` [Example 5], the Emax in test [1] amounted to 0%. The IC50 in test [2] is 0.1 to 1 µM.

With `COc1ccc(-c2nc3ccc(C(=O)N(CCC(C)C)CCC(C)C)cn3c2CCCN2CCCC2)cc1` [Example 6], in test [1], the Emax turned out to be 0%. Moreover, the IC50 in test [2] is less than 0.1 µM.

As for `COc1cccc(-c2nc3ccc(C(=O)N(CCC(C)C)CCC(C)C)cn3c2CCCNC(C)C)c1` [Example 7], the Emax in test [1] amounted to 0%. Besides, the IC50 in test [2] is 0.1 to 1 µM.

For the compound `CCN(CC)CCCc1c(-c2cccc(OC)c2)nc2ccc(C(=O)N(CCC(C)C)CCC(C)C)cn12` [Example 8], in test [1], the Emax stood at 0%. The IC50 in test [2] is less than 0.1 µM.

Regarding `COc1cccc(-c2nc3ccc(C(=O)N(CCC(C)C)CCC(C)C)cn3c2CCCN2CCCC2)c1` [Example 9], the Emax in test [1] amounted to 0%. Further, the IC50 in test [2] is less than 0.1 µM.

`COc1cccc(-c2nc3ccc(C(=O)N(CCC(C)C)CCC(C)C)cn3c2CCCNCC2CC2)c1` [Example 10]: the Emax in test [1] was determined as 0%. Also, the IC50 in test [2] was greater than 1 µM.

Turning to `COc1cccc(-c2nc3ccc(C(=O)N(CCC(C)C)CCC(C)C)cn3c2CCCN2CCC2)c1` [Example 11], the Emax in test [1] is 0%. Further, the IC50 in test [2] was less than 0.1 µM.

With `COc1cccc(-c2nc3ccc(C(=O)N(CCC(C)C)CCC(C)C)cn3c2CCCN2CCOCC2)c1` [Example 12], the Emax in test [1] worked out at 0%. The IC50 in test [2] was less than 0.1 µM.

With `COCC(C)NCCCc1c(-c2cccc(OC)c2)nc2ccc(C(=O)N(CCC(C)C)CCC(C)C)cn12` (stereo not shown) [Example 13], the Emax in test [1] stood at 0%. The IC50 in test [2] is greater than 1 µM.

For `COc1cccc(-c2nc3ccc(C(=O)N(CCC(C)C)CCC(C)C)cn3c2CCCN2CC[C@H](F)C2)c1` [Example 14], the Emax in test [1] was 0%. The IC50 in test [2] is less than 0.1 µM.

As for `COc1cccc(-c2nc3ccc(C(=O)N(CCC(C)C)CCC(C)C)cn3c2CCCN2CCN(C)CC2)c1` [Example 15], in test [1], the Emax was 0%. Moreover, the IC50 in test [2] was 0.1 to 1 µM.

Turning to `COc1cccc(-c2nc3ccc(C(=O)N(CCC(C)C)CCC(C)C)cn3c2CCCN2CCOC[C@@H]2C)c1` [Example 16], the Emax in test [1] is 0%. Also, the IC50 in test [2] was less than 0.1 µM.

Regarding `CC(C)CCN(CCC(C)C)C(=O)c1ccc2nc(-c3ccc(C#N)cc3)c(CCCN3CCCC3)n2c1` [Example 17], in test [1], the Emax was determined as 0%. In addition, the IC50 in test [2] is less than 0.1 µM.

For `CC(C)CCN(CCC(C)C)C(=O)c1ccc2nc(-c3ccc(C#N)cc3)c(CCCN(C)C)n2c1` [Example 18], the Emax in test [1] came out at 0%. Further, in test [2], the IC50 lay in the range of 0.1 to 1 µM.

As for `CC(C)CCN(CCC(C)C)C(=O)c1ccc2nc(-c3ccc(Cl)cc3)c(CCCN3CCCC3)n2c1` [Example 19], in test [1], the Emax came out at 0%. Further, the IC50 in test [2] is less than 0.1 µM.

As for `CC(C)CCN(CCC(C)C)C(=O)c1ccc2nc(-c3ccc(Cl)cc3)c(CCCN(C)C)n2c1` [Example 20], the Emax in test [1] was -18%. In test [1] (agonistic activity, cAMP, HEK293 membrane preparations, read-out: hMC-4R functional assay EC50/μM), the EC50 is less than 0.1 µM. Besides, the IC50 in test [2] fell in the range of 0.1 to 1 µM.

For the compound `COc1cccc(-c2nc3ccc(C(=O)N(CCC(C)C)CCC(C)C)cn3c2CCC(C)N2CCCC2)c1` (stereo not shown) [Example 21], the Emax in test [1] turned out to be 0%. Moreover, in test [2], the IC50 was less than 0.1 µM.
